Assays:
[1] = test system: human neonatal dermal fibroblasts; assay: Type I collagen production: PIP (C-terminal peptide of type I procollagen) in culture supernatant by EIA; format: cell-based; settings: for effect on promoting type I collagen production compared to the negative control (Bonferroni/Dunn test): under every concentration condition
Protocol: (§1) Commercially available human neonatal dermal fibroblasts (Cryo NHDF-Neo, manufactured by Sanko Junyaku Co., Ltd.) were used. The cells were inoculated in a commercially available 24-well plate to have 2×10^5 cells per well. The cells were then cultured for four hours in a commercially available medium for cell culture (D-MEM (1 g/L glucose), manufactured by Wako Pure Chemical Industries, Ltd.) to which 10% bovine fetal serum was supplemented (herein below, referred to as a “standard medium”) in a 5% CO2 and saturated water vapor atmosphere at 37° C. (degrees Celsius).
(§2) Subsequently, the medium was switched to a commercially available medium for cell culture (D-MEM (1 g/L glucose), manufactured by Wako Pure Chemical Industries, Ltd.) supplemented with 0.5% bovine fetal serum (herein below, referred to as “low-serum medium”) and cultured for approximately one day in a 5% CO2 and saturated water vapor atmosphere at 37° C. (degrees Celsius). D-aspartic acid (manufactured by Wako Pure Chemical Industries, Ltd., 018-04821) was added to the low-serum medium to have the concentration of 0.01 μM (micro-molar), 0.1 μM (micro-molar), […] μM (micro-molar), or 320 μM (micro-molar). As a positive control, magnesium L-ascorbyl phosphate (L-Ascorbic Acid Phosphate Magnesium Salt n-Hydrate, herein below, referred to as “APM”, manufactured by Wako Pure Chemical Industries, Ltd., 013-19641) was added to the low-serum medium to have the concentration of 150 μM (micro-molar), 250 μM (micro-molar), or 500 μM (micro-molar). Further, the low-serum medium described above to which neither APM nor D-aspartic acid had been added was employed as a negative control.
After completing the cell culture for two days, the culture supernatant was collected and the concentration of C-terminal peptide of type I procollagen (herein below, referred to as “PIP”) produced by human neonatal dermal fibroblasts was measured by using Procollagen type I C-peptide EIA kit (manufactured by Takara Bio Inc.) according to the manufacturer's instruction.
The cell culture, addition of amino acids, and quantification of production amount of type I collagen were carried out in the same manner as the Example 1. As an amino acid, D-alanine (manufactured by Peptide Institute, Inc., 2801) was used at the concentrations of 0.01 μM (micro-molar), 0.1 μM (micro-molar), 10 μM (micro-molar), 1000 μM (micro-molar), and 17400 μM (micro-molar). Further, the low-serum medium described above to which neither APM nor D-alanine had been added was employed as a negative control.
The cell culture, addition of amino acids, and quantification of production amount of type I collagen were carried out in the same manner as the Example 1. D-Aspartic acid (manufactured by Wako Pure Chemical Industries, Ltd., 018-04821) of 0.1 μM (micro-molar) and L-aspartic acid (manufactured by Wako Pure Chemical Industries, Ltd., 013-04832) of 0.1 μM (micro-molar) were used as amino acids. Further, the low-serum medium described above to which neither L-aspartic acid nor D-aspartic acid had been added was employed as a negative control.
The cell culture, addition of amino acids, and quantification of production amount of type I collagen were carried out in the same manner as the Example 1. D-Alanine (manufactured by Peptide Institute, Inc., 2801) of 0.1 μM (micro-molar) or 150 μM (micro-molar) and L-alanine (manufactured by Peptide Institute, Inc., 2701) of 0.1 μM (micro-molar) or 150 μM (micro-molar) were used as amino acids. Further, the low-serum medium described above to which neither L-alanine nor D-alanine had been added was employed as a negative control.

[2] = test system: human neonatal dermal fibroblasts; assay: Type I atelocollagen production after pepsin treatment, by type I human collagen ELISA; format: cell-based; settings: for promotion of type I collagen production compared to the negative control (Bonferroni/Dunn test): 0.1 μM, atelocollagen ELISA
Protocol: as §1, §2
The cell culture and addition of amino acids were carried out in the same manner as the Example 1. D-Aspartic acid (manufactured by Wako Pure Chemical Industries, Ltd., 018-04821) of 0.1 μM (micro-molar) and D-alanine (manufactured by Peptide Institute, Inc., 2801) of 0.1 μM (micro-molar) or 0.001 μM (micro-molar) were used as amino acids. Further, the low-serum medium described above to which neither D-aspartic acid nor D-alanine had been added was employed as a negative control. As a positive control, APM was added to the low-serum medium described above to have the concentration of 250 μM (micro-molar). In order to evaluate the production amount of type I collagen, type I procollagen and tropocollagen produced by human neonatal dermal fibroblasts were treated with pepsin (800 to 2500 unit/mg, P7000, manufactured by SIGMA), and the concentration of type I atelocollagen was measured by type I human collagen ELISA (EC1-E105, manufactured by AC Biotechnologies) according to the manufacturer's instruction.

[3] = Example 4, added at 0.1 μM, negative control 361 ng/mL
[4] = Example 4, added at 150 μM, negative control 361 ng/mL
[5] = Example 5 results (1), added at 0.1 μM, negative control 1.8 μg/mL
[6] = Example 3, added at 0.1 μM, negative control 361 ng/mL

Compound: C[C@@H](N)C(=O)O [D-alanine]
- PIP concentration ([1]; Example 2, added at 0.01 μM, negative control 551 ng/mL): 750 ng/mL
- PIP concentration ([1]; Example 2, added at 0.1 μM, negative control 551 ng/mL): 789 ng/mL
- PIP concentration ([1]; Example 2, added at 10 μM, negative control 551 ng/mL): 876 ng/mL
- PIP concentration ([1]; Example 2, added at 1000 μM, negative control 551 ng/mL): 823 ng/mL
- PIP concentration ([1]; Example 2, added at 17400 μM, negative control 551 ng/mL): 799 ng/mL
- effect on promoting type I collagen production compared to the negative control (Bonferroni/Dunn test) ([1]; Example 2): statistically significant effect
- promotion of type I collagen production compared to the negative control (Bonferroni/Dunn test) ([1]; Example 4, 0.1 μM or 150 μM): promoted with statistical significance
- PIP concentration [1, 3]: 502 ng/mL
- PIP concentration [1, 4]: 450 ng/mL
- promotion of type I collagen production compared to the negative control (Bonferroni/Dunn test) ([2]; Example 5 results (1)): promoted with statistical significance
- concentration of type I atelocollagen [2, 5]: 4.0 μg (microgram)/mL
- concentration of type I atelocollagen ([2]; Example 5 results (2), added at 0.001 μM, negative control 1.7 μg/mL): 2.1 μg (microgram)/mL

Compound: N[C@H](CC(=O)O)C(=O)O [D-aspartic acid]
- effect on promoting type I collagen production in comparison with APM ([1]; Example 1, 0.01 μM to 100 μM similar to APM at 150 μM): prominently more potent effect on promoting type I collagen production than APM
- PIP concentration ([1]; Example 1, added at 0.01 μM, negative control 583 ng/mL): 1286 ng/mL
- PIP concentration ([1]; Example 1, added at 0.1 μM, negative control 583 ng/mL): 1159 ng/mL
- PIP concentration ([1]; Example 1, added at 10 μM, negative control 583 ng/mL): 1117 ng/mL
- PIP concentration ([1]; Example 1, added at 100 μM, negative control 583 ng/mL): 1119 ng/mL
- PIP concentration ([1]; Example 1, added at 320 μM, negative control 583 ng/mL): 1007 ng/mL
- effect on promoting type I collagen production compared to the negative control (Bonferroni/Dunn test) ([1]; Example 1): statistically significant effect
- promotion of type I collagen production compared to the negative control (Bonferroni/Dunn test) ([1]; Example 3, 0.1 μM): promoted with statistical significance
- PIP concentration [1, 6]: 456 ng/mL
- promotion of type I collagen production compared to the negative control (Bonferroni/Dunn test) ([2]; Example 5 results (1)): promoted with statistical significance
- concentration of type I atelocollagen [2, 5]: 3.8 μg (microgram)/mL

Compound: C[C@H](N)C(=O)O [L-alanine, reference compound]
- PIP concentration [1, 3]: 405 ng/mL
- PIP concentration [1, 4]: 413 ng/mL

Compound: N[C@@H](CC(=O)O)C(=O)O [L-aspartic acid, reference compound]
- PIP concentration [1, 6]: 406 ng/mL

Compound: magnesium L-ascorbyl phosphate [APM, reference compound]
- PIP concentration ([1]; Example 1, added at 150 μM, two days culture, low-serum medium, negative control 583 ng/mL): 1183 ng/mL
- PIP concentration ([1]; Example 1, added at 250 μM, negative control 583 ng/mL): 1666 ng/mL
- PIP concentration ([1]; Example 1, added at 500 μM, negative control 583 ng/mL): 1416 ng/mL
- effect on promoting type I collagen production compared to the negative control (Bonferroni/Dunn test) ([1]; Example 1): statistically significant effect
- PIP concentration ([1]; Example 2, added at 150 μM, negative control 551 ng/mL): 1183 ng/mL
- PIP concentration ([1]; Example 2, added at 250 μM, negative control 551 ng/mL): 1666 ng/mL
- PIP concentration ([1]; Example 2, added at 500 μM, negative control 551 ng/mL): 1416 ng/mL
- effect on promoting type I collagen production compared to the negative control (Bonferroni/Dunn test) ([1]; Example 2): statistically significant effect
- concentration of type I atelocollagen ([2]; Example 5 results (1), added at 250 μM, negative control 1.8 μg/mL): 3.9 μg (microgram)/mL
- concentration of type I atelocollagen ([2]; Example 5 results (2), added at 250 μM, negative control 1.7 μg/mL): 2.6 μg (microgram)/mL

Reference: US8637572B2, “Composition for promoting collagen production” (Shiseido Company, Ltd., priority 2009, dated 2014)
